Tests used:
Assay in all cases: Kinobeads competition binding, HL60 cell lysate
Settings in all cases: 10 μM free compound
[1] = biological target: TGFbR1 (Homo sapiens, UniProt P36897); design: endogenous in cells
Summary of the method: (§1)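 Competition readout: iTRAQ reporter-ion peak areas (LC-MS/MS) comparing bead-bound kinase with 10 μM free compound versus 0.5% DMSO. Compound-immobilized Sepharose was incubated with HL60 lysate, 50 mg protein, 2 h, 4 °C, then washed, eluted in SDS buffer and resolved by SDS-PAGE.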

[2] = biological target: CK2a2 (Homo sapiens, UniProt P19784); design: endogenous in cells
Summary of the method: as §1

[3] = biological target: T1, NEK9 (Homo sapiens, UniProt Q8TD19); design: endogenous in cells
T1 sequence (Q8TD19 1-979): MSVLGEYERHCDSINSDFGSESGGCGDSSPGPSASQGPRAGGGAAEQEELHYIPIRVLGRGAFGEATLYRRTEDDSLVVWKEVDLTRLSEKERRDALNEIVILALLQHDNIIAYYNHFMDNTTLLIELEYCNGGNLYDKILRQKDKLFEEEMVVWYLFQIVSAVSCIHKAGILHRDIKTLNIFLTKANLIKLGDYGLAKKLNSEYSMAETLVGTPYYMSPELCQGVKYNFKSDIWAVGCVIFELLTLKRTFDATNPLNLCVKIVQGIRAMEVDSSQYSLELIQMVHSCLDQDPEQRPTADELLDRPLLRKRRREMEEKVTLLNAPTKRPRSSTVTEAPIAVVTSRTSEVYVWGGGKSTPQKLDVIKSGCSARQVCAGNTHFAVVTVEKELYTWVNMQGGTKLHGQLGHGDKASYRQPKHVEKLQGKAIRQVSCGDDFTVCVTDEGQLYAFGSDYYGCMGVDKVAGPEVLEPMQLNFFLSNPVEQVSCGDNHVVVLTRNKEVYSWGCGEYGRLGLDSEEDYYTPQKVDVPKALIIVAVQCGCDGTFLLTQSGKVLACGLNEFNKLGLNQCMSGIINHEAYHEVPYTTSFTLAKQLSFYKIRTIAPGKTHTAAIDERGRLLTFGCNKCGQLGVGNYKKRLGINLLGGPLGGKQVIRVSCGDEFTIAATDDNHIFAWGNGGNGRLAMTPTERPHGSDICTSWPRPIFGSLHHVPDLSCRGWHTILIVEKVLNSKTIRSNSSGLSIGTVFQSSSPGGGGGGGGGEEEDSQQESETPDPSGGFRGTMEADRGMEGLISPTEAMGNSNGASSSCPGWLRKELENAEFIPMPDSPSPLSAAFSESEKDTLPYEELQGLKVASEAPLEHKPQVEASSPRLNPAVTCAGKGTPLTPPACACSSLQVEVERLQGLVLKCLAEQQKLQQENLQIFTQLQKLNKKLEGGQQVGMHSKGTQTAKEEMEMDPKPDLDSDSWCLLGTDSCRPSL
Summary of the method: as §1

[4] = biological target: T2, PHKg2 (Homo sapiens, UniProt P15735); design: endogenous in cells
T2 sequence (P15735 1-406): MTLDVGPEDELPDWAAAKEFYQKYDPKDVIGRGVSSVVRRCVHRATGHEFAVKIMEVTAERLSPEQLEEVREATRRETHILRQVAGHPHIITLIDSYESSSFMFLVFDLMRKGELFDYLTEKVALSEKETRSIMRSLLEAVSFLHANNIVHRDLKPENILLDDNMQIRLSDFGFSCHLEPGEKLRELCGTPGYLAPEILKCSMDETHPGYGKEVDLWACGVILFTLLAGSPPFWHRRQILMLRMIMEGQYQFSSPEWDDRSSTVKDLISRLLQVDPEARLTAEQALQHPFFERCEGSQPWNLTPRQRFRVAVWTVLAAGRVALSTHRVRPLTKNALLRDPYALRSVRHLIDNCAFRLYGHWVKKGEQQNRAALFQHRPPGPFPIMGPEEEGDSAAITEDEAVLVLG
Summary of the method: as §1

[5] = biological target: QIK (Homo sapiens, UniProt Q9H0K1); design: endogenous in cells; host or cells: HL60 cells
Method: To one aliquot of cell lysate 10 μM of the free compound (FIG. 3, CZC31326) was added and allowed to bind to proteins in the lysate. Then the affinity matrix with the immobilized compound (Example 1) was added to capture proteins that were not interacting with the previously added free compound. Beads were separated from the lysate and bead bound proteins were eluted in SDS sample buffer and subsequently separated by SDS-Polyacrylamide gel electrophoresis (FIG. 4). Suitable gel bands were cut out and subjected to in-gel proteolytic digestion with trypsin. The second lysate aliquot was processed identically, however no free compound was added (DMSO solvent control). Peptides originating from samples 1 and 2 were labeled with iTRAQ reagents (iTRAQ 114 and iTRAQ 117) and the combined samples were analyzed with a nano-flow liquid chromatography system coupled online to a tandem mass spectrometer (LC-MS/MS) experiment followed by iTRAQ reporter ion quantification in the MS/MS spectra (Ross et al., 2004. Mol. Cell. Proteomics 3(12):1154-1169). Further experimental protocols can be found in WO2006/134056 and a previous publication (Bantscheff et al., 2007. Nature Biotechnology 25, 1035-1044). Sepharose-beads with the immobilized compound (100 μl beads per pull-down experiment) were equilibrated in lysis buffer and incubated with a cell lysate sample containing 50 mg of protein on an end-over-end shaker (Roto Shake Genie, Scientific Industries Inc.) for 2 hours at 4° C. Beads were collected, transferred to Mobicol-columns (MoBiTech 10055) and washed with 10 ml lysis buffer containing 0.4% NP40 detergent, followed by 5 ml lysis buffer containing 0.2% detergent. To elute bound proteins, 60 μl 2×SDS sample buffer was added to the column. The column was incubated for 30 minutes at 50° C. and the eluate was transferred to a siliconized microfuge tube by centrifugation. Proteins were then alkylated with 108 mM iodoacetamid. Proteins were then separated by SDS-Polyacrylamide electrophoresis (SDS-PAGE). The peptide extracts of samples treated with 10 μM of free compound (CZC31326) and the solvent control (0.5% DMSO) were treated with different variants of the isobaric tagging reagent (iTRAQ Reagents Multiplex Kit, part number 4352135, Applied Biosystems, Foster City, Calif., USA). The iTRAQ reagents are a set of multiplexed, amine-specific, stable isotope reagents that can label peptides on amino groups in up to four different biological samples enabling simultaneous identification and quantitation of peptides. The iTRAQ reagents were used according to instructions provided by the manufacturer. The samples were resuspended in 10 μl 50 mM TEAB solution, pH 8.5 and 10 μl ethanol were added. The iTRAQ reagent was dissolved in 120 μl ethanol and 10 μl of reagent solution were added to the sample. The labeling reaction was performed at room temperature for one hour on a horizontal shaker and stopped by adding 5 μl of 100 mM TEAB and 100 mM glycine in water. The two labeled sampled were then combined, dried in a vacuum centrifuge and resuspended in 10 μl of 0.1% formic acid in water. Relative protein quantitation was performed using peak areas of iTRAQ reporter ion signals essentially as described in an earlier publication (Bantscheff et al., 2007. Nature Biotechnology 25, 1035-1044).

inhibition at 10 µM [1]: 95.6%
inhibition at 10 µM [2]: 97.7%
inhibition at 10 µM [4]: 96.6%
inhibition at 10 µM [5]: 94.2%
Compound: CS(=O)(=O)Nc1ccccc1Nc1nc(Nc2cccc(OCCN)c2)ncc1Cl [CZC31326, N-(2-(2-(3-(2-aminoethoxy)phenylamino)-5-chloropyrimidin-4-ylamino)phenyl)methanesulfonamide]
inhibition at 10 µM [3]: 93%
